Source: the kinase profiling compilation of Christmann-Franck et al. (2016)

What was measured:
Assay in all cases: KINOMEscan competition binding
Conditions in all cases: compound 10.0 µM
AURKB (human) = AURKB (human) (UniProt Q96GD4)
FGFR2 (human) = FGFR2 (human) (UniProt P21802)
FER (human) = FER (human) (UniProt P16591)
RIPK2 (human) = RIPK2 (human) (UniProt O43353)
FGFR4 (human) = FGFR4 (human) (UniProt P22455)
IRAK4 (human) = IRAK4 (human) (UniProt Q9NWZ3)
HIPK4 (human) = HIPK4 (human) (UniProt Q8NE63)
TRPM6 (human) = TRPM6 (human) (UniProt Q9BX84)
WEE2 (human) = WEE2 (human) (UniProt P0C1S8)
MKNK1 (human) = MKNK1 (human) (UniProt Q9BUB5)
[1] = molecular target: JAK1 JH1 catalytic (human) (UniProt P23458)
PIK3CA (human) = PIK3CA (human) (UniProt P42336)
CDK4 CCND3 (human) = CDK4 CCND3 (human) (UniProt P11802+P30281)
AURKC (human) = AURKC (human) (UniProt Q9UQB9)
Sequence of AURKC (human) (Q9UQB9 whole entry, looked up): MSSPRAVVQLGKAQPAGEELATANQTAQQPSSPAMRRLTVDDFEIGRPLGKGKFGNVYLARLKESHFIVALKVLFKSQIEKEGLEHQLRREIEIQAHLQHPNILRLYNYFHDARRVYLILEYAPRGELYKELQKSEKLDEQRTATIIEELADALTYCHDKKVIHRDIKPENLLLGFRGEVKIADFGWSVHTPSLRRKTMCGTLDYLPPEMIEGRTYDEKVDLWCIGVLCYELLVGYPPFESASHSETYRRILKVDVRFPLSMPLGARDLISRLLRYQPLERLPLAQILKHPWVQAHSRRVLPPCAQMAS

[2] = system: KIT (human), P10721 [V559D/V654A]
Sequence of KIT (human), P10721 [V559D/V654A] (P10721 whole entry V559D/V654A, looked up): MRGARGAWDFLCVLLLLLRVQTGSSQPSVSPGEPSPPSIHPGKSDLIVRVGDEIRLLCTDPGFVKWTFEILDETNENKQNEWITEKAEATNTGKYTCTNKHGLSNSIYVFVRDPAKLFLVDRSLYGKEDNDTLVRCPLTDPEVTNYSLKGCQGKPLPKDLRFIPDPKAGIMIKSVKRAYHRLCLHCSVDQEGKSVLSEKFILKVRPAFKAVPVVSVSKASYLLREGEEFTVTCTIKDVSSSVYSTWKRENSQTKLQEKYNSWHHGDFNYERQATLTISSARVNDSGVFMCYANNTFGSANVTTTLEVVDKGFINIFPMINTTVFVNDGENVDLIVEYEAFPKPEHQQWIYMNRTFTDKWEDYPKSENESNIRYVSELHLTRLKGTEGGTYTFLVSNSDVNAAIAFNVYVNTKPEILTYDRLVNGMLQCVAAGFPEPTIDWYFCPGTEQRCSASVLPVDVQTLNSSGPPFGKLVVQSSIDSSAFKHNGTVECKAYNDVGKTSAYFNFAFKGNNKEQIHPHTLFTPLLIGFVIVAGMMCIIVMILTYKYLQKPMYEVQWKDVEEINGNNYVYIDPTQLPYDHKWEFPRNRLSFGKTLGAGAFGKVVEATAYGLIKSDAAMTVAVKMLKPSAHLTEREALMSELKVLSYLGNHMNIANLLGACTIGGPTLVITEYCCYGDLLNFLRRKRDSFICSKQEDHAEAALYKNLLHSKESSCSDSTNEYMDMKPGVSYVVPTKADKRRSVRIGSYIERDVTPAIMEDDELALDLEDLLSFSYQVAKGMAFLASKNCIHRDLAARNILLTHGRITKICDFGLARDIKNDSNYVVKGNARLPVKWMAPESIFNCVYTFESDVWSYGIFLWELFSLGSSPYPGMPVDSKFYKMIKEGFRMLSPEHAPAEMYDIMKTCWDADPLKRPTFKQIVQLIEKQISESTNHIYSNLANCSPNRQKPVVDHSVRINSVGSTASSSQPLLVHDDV

DDR1 (human) = DDR1 (human) (UniProt Q08345)
SIK3 (human) = SIK3 (human) (UniProt Q9Y2K2)
TEK (human) = TEK (human) (UniProt Q02763)
Sequence of TEK (human) (Q02763 whole entry, looked up): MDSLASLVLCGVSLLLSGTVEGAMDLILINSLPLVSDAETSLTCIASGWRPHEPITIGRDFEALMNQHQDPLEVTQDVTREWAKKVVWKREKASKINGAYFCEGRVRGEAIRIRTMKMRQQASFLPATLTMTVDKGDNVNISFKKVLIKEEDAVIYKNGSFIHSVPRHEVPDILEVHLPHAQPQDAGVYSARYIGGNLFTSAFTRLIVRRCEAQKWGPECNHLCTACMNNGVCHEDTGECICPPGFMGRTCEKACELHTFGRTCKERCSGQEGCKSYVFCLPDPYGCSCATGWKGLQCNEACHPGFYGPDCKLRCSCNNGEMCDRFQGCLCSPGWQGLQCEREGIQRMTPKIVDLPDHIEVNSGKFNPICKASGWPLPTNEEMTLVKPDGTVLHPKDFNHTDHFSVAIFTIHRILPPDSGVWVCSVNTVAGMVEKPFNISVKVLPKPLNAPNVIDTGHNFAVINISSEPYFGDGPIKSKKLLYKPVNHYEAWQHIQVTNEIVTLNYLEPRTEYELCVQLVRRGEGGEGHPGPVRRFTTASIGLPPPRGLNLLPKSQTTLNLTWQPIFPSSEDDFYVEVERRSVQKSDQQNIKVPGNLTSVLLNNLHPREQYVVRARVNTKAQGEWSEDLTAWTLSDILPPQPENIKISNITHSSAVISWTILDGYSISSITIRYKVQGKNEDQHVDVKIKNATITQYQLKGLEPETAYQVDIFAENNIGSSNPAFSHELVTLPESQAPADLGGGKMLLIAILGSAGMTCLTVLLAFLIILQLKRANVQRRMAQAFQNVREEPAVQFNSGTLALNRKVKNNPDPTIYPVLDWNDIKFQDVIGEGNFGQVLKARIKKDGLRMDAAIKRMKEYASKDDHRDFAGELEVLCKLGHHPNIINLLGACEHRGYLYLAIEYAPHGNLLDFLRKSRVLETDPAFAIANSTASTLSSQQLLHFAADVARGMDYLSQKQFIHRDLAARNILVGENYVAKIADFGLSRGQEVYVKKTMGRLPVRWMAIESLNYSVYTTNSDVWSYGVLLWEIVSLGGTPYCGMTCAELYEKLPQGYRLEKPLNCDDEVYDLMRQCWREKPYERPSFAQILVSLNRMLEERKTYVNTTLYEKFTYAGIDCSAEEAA

CSNK1E (human) = CSNK1E (human) (UniProt P49674)
PIM2 (human) = PIM2 (human) (UniProt Q9P1W9)
PTK2 (human) = PTK2 (human) (UniProt Q05397)
DAPK1 (human) = DAPK1 (human) (UniProt P53355)
MAPK11 (human) = MAPK11 (human) (UniProt Q15759)
ITK (human) = ITK (human) (UniProt Q08881)
Sequence of ITK (human) (Q08881 whole entry, looked up): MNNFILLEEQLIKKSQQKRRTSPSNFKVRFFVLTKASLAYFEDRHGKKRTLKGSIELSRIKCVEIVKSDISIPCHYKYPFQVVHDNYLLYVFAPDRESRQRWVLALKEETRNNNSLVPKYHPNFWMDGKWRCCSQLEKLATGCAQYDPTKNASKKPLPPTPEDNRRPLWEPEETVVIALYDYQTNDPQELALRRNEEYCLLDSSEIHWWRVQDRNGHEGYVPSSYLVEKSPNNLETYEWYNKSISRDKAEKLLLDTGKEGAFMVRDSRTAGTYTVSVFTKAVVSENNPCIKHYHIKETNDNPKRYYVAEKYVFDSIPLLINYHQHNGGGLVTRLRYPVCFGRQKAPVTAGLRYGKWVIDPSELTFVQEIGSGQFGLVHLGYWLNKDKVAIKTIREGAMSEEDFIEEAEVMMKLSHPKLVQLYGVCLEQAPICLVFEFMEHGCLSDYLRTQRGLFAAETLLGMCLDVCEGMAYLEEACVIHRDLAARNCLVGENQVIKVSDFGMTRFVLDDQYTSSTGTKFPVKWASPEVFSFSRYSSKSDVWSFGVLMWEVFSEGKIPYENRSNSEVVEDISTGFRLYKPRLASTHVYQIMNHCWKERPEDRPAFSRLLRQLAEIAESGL

SRPK2 (human) = SRPK2 (human) (UniProt P78362)
STK3 (human) = STK3 (human) (UniProt Q13188)
RIPK4 (human) = RIPK4 (human) (UniProt P57078)
PRKCH (human) = PRKCH (human) (UniProt P24723)
Sequence of PRKCH (human) (P24723 whole entry, looked up): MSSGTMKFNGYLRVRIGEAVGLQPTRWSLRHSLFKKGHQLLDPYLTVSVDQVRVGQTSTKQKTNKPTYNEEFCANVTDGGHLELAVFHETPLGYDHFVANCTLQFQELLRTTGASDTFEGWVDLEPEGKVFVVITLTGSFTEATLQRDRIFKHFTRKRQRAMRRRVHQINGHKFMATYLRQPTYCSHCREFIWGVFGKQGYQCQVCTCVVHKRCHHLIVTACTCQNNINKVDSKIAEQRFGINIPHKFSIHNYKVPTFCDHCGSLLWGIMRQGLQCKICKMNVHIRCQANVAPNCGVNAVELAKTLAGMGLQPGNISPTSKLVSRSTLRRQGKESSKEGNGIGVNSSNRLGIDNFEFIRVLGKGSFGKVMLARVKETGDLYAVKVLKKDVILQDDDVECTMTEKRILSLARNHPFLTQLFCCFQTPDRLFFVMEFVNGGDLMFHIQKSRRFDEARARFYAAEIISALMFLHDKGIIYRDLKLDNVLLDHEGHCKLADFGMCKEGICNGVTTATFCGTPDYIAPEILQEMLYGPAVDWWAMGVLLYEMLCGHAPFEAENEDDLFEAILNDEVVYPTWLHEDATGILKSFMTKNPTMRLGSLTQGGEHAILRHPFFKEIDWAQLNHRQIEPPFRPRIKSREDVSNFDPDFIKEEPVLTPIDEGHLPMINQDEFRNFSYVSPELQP

CAMKK1 (human) = CAMKK1 (human) (UniProt Q8N5S9)
Sequence of CAMKK1 (human) (Q8N5S9 whole entry, looked up): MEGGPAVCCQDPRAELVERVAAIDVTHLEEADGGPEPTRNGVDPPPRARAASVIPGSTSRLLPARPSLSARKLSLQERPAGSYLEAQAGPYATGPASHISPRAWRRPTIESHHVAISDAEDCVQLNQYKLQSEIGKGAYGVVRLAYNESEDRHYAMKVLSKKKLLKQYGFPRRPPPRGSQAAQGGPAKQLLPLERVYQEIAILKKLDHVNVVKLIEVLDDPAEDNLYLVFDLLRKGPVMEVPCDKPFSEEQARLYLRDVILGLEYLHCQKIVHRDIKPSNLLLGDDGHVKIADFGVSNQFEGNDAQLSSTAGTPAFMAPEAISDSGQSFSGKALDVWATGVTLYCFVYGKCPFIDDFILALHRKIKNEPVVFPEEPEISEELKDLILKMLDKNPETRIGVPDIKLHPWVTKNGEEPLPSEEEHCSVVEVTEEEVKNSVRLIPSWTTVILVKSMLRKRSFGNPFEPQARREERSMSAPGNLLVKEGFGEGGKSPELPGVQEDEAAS

TLK1 (human) = TLK1 (human) (UniProt Q9UKI8)
YSK4 (human) = YSK4 (human) (UniProt Q56UN5)
SRMS (human) = SRMS (human) (UniProt Q9H3Y6)
Sequence of SRMS (human) (Q9H3Y6 whole entry, looked up): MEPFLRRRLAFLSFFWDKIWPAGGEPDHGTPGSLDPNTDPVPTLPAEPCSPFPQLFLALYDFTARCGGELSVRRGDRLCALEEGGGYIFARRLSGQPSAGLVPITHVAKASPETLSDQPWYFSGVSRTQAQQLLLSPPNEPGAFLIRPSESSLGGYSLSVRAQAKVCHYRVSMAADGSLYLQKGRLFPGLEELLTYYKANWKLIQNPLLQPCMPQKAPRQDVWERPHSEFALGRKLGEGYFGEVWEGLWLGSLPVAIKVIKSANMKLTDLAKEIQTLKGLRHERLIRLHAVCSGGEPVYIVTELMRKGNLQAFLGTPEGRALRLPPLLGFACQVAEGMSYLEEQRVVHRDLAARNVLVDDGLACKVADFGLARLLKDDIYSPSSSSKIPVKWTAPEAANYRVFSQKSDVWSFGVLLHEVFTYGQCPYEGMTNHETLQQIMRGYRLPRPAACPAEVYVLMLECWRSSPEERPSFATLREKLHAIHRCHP

PRPF4B (human) = PRPF4B (human) (UniProt Q13523)
TYRO3 (human) = TYRO3 (human) (UniProt Q06418)
NEK7 (human) = NEK7 (human) (UniProt Q8TDX7)
STK38 (human) = STK38 (human) (UniProt Q15208)
CDK18 (human) = CDK18 (human) (UniProt Q07002)
CDKL1 (human) = CDKL1 (human) (UniProt Q00532)
MUSK (human) = MUSK (human) (UniProt O15146)
CDK2 (human) = CDK2 (human) (UniProt P24941)

Sequence of AURKB (human) (Q96GD4 whole entry, looked up): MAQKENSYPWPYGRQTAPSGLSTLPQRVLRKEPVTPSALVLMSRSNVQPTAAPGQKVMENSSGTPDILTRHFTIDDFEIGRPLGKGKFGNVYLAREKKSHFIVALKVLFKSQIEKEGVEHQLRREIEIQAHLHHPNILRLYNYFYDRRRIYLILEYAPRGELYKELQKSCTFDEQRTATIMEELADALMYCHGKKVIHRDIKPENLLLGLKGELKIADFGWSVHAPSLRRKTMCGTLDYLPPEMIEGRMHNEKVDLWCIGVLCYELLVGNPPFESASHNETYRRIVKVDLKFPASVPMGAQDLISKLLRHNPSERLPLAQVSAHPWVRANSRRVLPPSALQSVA

CN(C)C/C=C/C(=O)Nc1ccc(C(=O)Nc2cccc(Nc3nccc(-c4cccnc4)n3)c2)cc1
kinase still bound, per cent of control (AURKB (human)): 22%
kinase still bound, per cent of control (FGFR2 (human)): 86%
kinase still bound, per cent of control (FER (human)): 100%
kinase still bound, per cent of control (RIPK2 (human)): 84%
kinase still bound, per cent of control (FGFR4 (human)): 100%
kinase still bound, per cent of control (IRAK4 (human)): 34%
kinase still bound, per cent of control (HIPK4 (human)): 8.6%
kinase still bound, per cent of control (TRPM6 (human)): 100%
kinase still bound, per cent of control (WEE2 (human)): 100%
kinase still bound, per cent of control (MKNK1 (human)): 42%
kinase still bound, per cent of control [1]: 100%
kinase still bound, per cent of control (PIK3CA (human)): 100%
kinase still bound, per cent of control (CDK4 CCND3 (human)): 100%
kinase still bound, per cent of control (AURKC (human)): 5.5%
kinase still bound, per cent of control [2]: 56%
kinase still bound, per cent of control (DDR1 (human)): 100%
kinase still bound, per cent of control (SIK3 (human)): 64%
kinase still bound, per cent of control (TEK (human)): 94%
kinase still bound, per cent of control (CSNK1E (human)): 56%
kinase still bound, per cent of control (PIM2 (human)): 100%
kinase still bound, per cent of control (PTK2 (human)): 100%
kinase still bound, per cent of control (DAPK1 (human)): 58%
kinase still bound, per cent of control (MAPK11 (human)): 88%
kinase still bound, per cent of control (ITK (human)): 100%
kinase still bound, per cent of control (SRPK2 (human)): 100%
kinase still bound, per cent of control (STK3 (human)): 100%
kinase still bound, per cent of control (RIPK4 (human)): 33%
kinase still bound, per cent of control (PRKCH (human)): 100%
kinase still bound, per cent of control (CAMKK1 (human)): 52%
kinase still bound, per cent of control (TLK1 (human)): 92%
kinase still bound, per cent of control (YSK4 (human)): 0.1%
kinase still bound, per cent of control (SRMS (human)): 85%
kinase still bound, per cent of control (PRPF4B (human)): 100%
kinase still bound, per cent of control (TYRO3 (human)): 100%
kinase still bound, per cent of control (NEK7 (human)): 9.8%
kinase still bound, per cent of control (STK38 (human)): 90%
kinase still bound, per cent of control (CDK18 (human)): 95%
kinase still bound, per cent of control (CDKL1 (human)): 41%
kinase still bound, per cent of control (MUSK (human)): 61%
kinase still bound, per cent of control (CDK2 (human)): 100%

CCN1CCN(C(=O)Cc2ccc(Nc3ncc(F)c(Nc4ccc(C(=O)Nc5ccccc5Cl)cc4)n3)cc2)CC1
kinase still bound, per cent of control (AURKB (human)): 14%
kinase still bound, per cent of control (FGFR2 (human)): 25%
kinase still bound, per cent of control (FER (human)): 100%
kinase still bound, per cent of control (RIPK2 (human)): 19%
kinase still bound, per cent of control (FGFR4 (human)): 71%
kinase still bound, per cent of control (IRAK4 (human)): 100%
kinase still bound, per cent of control (HIPK4 (human)): 2.4%
kinase still bound, per cent of control (TRPM6 (human)): 96%
kinase still bound, per cent of control (WEE2 (human)): 12%
kinase still bound, per cent of control (MKNK1 (human)): 100%
kinase still bound, per cent of control [1]: 6.9%
kinase still bound, per cent of control (PIK3CA (human)): 83%
kinase still bound, per cent of control (CDK4 CCND3 (human)): 21%
kinase still bound, per cent of control (AURKC (human)): 1.2%
kinase still bound, per cent of control [2]: 84%
kinase still bound, per cent of control (DDR1 (human)): 22%
kinase still bound, per cent of control (SIK3 (human)): 68%
kinase still bound, per cent of control (TEK (human)): 48%
kinase still bound, per cent of control (CSNK1E (human)): 100%
kinase still bound, per cent of control (PIM2 (human)): 100%
kinase still bound, per cent of control (PTK2 (human)): 28%
kinase still bound, per cent of control (DAPK1 (human)): 3.8%
kinase still bound, per cent of control (MAPK11 (human)): 81%
kinase still bound, per cent of control (ITK (human)): 52%
kinase still bound, per cent of control (SRPK2 (human)): 11%
kinase still bound, per cent of control (STK3 (human)): 100%
kinase still bound, per cent of control (RIPK4 (human)): 31%
kinase still bound, per cent of control (PRKCH (human)): 100%
kinase still bound, per cent of control (CAMKK1 (human)): 25%
kinase still bound, per cent of control (TLK1 (human)): 19%
kinase still bound, per cent of control (YSK4 (human)): 7.2%
kinase still bound, per cent of control (SRMS (human)): 58%
kinase still bound, per cent of control (PRPF4B (human)): 18%
kinase still bound, per cent of control (TYRO3 (human)): 79%
kinase still bound, per cent of control (NEK7 (human)): 2.6%
kinase still bound, per cent of control (STK38 (human)): 70%
kinase still bound, per cent of control (CDK18 (human)): 43%
kinase still bound, per cent of control (CDKL1 (human)): 41%
kinase still bound, per cent of control (MUSK (human)): 11%
kinase still bound, per cent of control (CDK2 (human)): 80%
